Experimental data: PubChem BioAssay AID256 (DTP/NCI, 2004)
Several values for one entry are separate records, joined by “and”; a condition that tells them apart may be missing. Equal entries are not always repeated. Toxic doses and inconclusive results are not listed.

Tested on: CD2F1 mice, L1210 leukemia ip, survival T/C
Assay: NCI In Vivo Anticancer Drug Screen. Data for tumor model L1210 Leukemia (intraperitoneal) in CD2F1 (CDF1) mice
Details: higher = longer survival
Method in brief: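 Implant tumor; dose compound or vehicle; measure endpoint in both groups; report treated divided by control.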

[1] = endpoint: mean survival time, dose: 75.0 mg/kg/injection, schedule: Q01DX001 (ip), vehicle: saline
[2] = endpoint: mean survival time, dose: 150.0 mg/kg/injection, schedule: Q01DX001 (ip), vehicle: saline
[3] = endpoint: mean survival time, dose: 100.0 mg/kg/injection, schedule: Q04DX003 (ip), vehicle: saline with Tween-80
[4] = endpoint: mean survival time, dose: 200.0 mg/kg/injection, schedule: Q04DX003 (ip), vehicle: saline with Tween-80
[5] = endpoint: mean survival time, dose: 400.0 mg/kg/injection, schedule: Q04DX003 (ip), vehicle: saline with Tween-80
[6] = endpoint: mean survival time, dose: 100.0 mg/kg/injection, schedule: Q01DX001 (ip), vehicle: saline with Tween-80
[7] = endpoint: mean survival time, dose: 200.0 mg/kg/injection, schedule: Q01DX001 (ip), vehicle: saline with Tween-80
[8] = endpoint: mean survival time, dose: 400.0 mg/kg/injection, schedule: Q01DX001 (ip), vehicle: saline with Tween-80
[9] = endpoint: mean survival time, dose: 12.5 mg/kg/injection, schedule: Q01DX009 (ip), vehicle: saline with Tween-80
[10] = endpoint: mean survival time, dose: 25.0 mg/kg/injection, schedule: Q01DX009 (ip), vehicle: saline with Tween-80
[11] = endpoint: mean survival time, dose: 50.0 mg/kg/injection, schedule: Q01DX009 (ip), vehicle: saline with Tween-80
[12] = endpoint: mean survival time, dose: 100.0 mg/kg/injection, schedule: Q01DX009 (ip), vehicle: saline with Tween-80
[13] = endpoint: mean survival time, dose: 200.0 mg/kg/injection, schedule: Q01DX009 (ip), vehicle: saline with Tween-80
[14] = endpoint: mean survival time, dose: 400.0 mg/kg/injection, schedule: Q01DX009 (ip), vehicle: saline with Tween-80

SMILES: COc1ccc(C(=O)/C=C/c2ccc(N(C)C)cc2)cc1
- T/C [1]: 95 % of control
- T/C [2]: 93 % of control

SMILES: CC[C@@]1(OC(=O)CN2CCCC2)C(=O)OCc2c1cc1n(c2=O)Cc2cc3ccccc3nc2-1
- T/C (endpoint: median survival time, dose: 6.25 mg/kg/injection, schedule: Q04DX002 (ip), vehicle: water): 108 % of control
- T/C (endpoint: median survival time, dose: 12.5 mg/kg/injection, schedule: Q04DX002 (ip), vehicle: water): 113 % of control
- T/C (endpoint: median survival time, dose: 50.0 mg/kg/injection, schedule: Q04DX002 (ip), vehicle: water): 158 % of control and 166 % of control

SMILES: O=CN(/C=C1\CC(OO)NC1=O)Cc1ccccc1 (stereo not given)
- T/C [1]: 102 % of control
- T/C [2]: 108 % of control

SMILES: CCOc1c(F)ccc(F)c1-c1c(F)ccc(F)c1OCC
- T/C [3]: 98 % of control
- T/C [4]: 95 % of control
- T/C [5]: 106 % of control

SMILES: CC1(C)OCC(C2CCC3(C)C4=CCC5C(C)(C)C(O)CCC5(C)C4CCC23C)CC(O)C1O (stereo not given)
- T/C (endpoint: mean survival time, dose: 2.5 mg/kg/injection, schedule: Q01DX009 (ip), vehicle: Klucel (hydroxypropylcellulose) (HPC)): 101 % of control
- T/C (endpoint: mean survival time, dose: 5.0 mg/kg/injection, schedule: Q01DX009 (ip), vehicle: Klucel (hydroxypropylcellulose) (HPC)): 95 % of control
- T/C (endpoint: mean survival time, dose: 10.0 mg/kg/injection, schedule: Q01DX009 (ip), vehicle: Klucel (hydroxypropylcellulose) (HPC)): 97 % of control

SMILES: O/N=C/C=N/O.O/N=C/C=N/O.[Pd]
- T/C (endpoint: mean survival time, dose: 6.25 mg/kg/injection, schedule: Q01DX009 (ip), vehicle: saline with Tween-80): 100 % of control

SMILES: COc1cccc(N=C(N)N=C(N)N)c1
- T/C (endpoint: mean survival time, dose: 100.0 mg/kg/injection, schedule: Q01DX009 (ip), vehicle: saline): 95 % of control
- T/C (endpoint: mean survival time, dose: 200.0 mg/kg/injection, schedule: Q01DX009 (ip), vehicle: saline): 90 % of control

SMILES: c1ccc(C2Cc3ccccc3C2=NC2CCCCC2)cc1 (stereo not given)
- T/C [6]: 97 % of control
- T/C [7]: 93 % of control
- T/C [8]: 90 % of control

SMILES: CC(C)(C)CC(C)(C)Nc1nc(NC(C)(C)CC(C)(C)C)nc(NC(C)(C)CC(C)(C)C)n1
- T/C [9]: 101 % of control
- T/C [10]: 95 % of control
- T/C [11]: 97 % of control

SMILES: CCOC(=O)C1(C(C)CC)SCCCS1 (stereo not given)
- T/C (endpoint: mean survival time, dose: 100.0 mg/kg/injection, schedule: Q04DX002 (ip), vehicle: saline with Tween-80): 97 % of control
- T/C (endpoint: mean survival time, dose: 200.0 mg/kg/injection, schedule: Q04DX002 (ip), vehicle: saline with Tween-80): 97 % of control
- T/C (endpoint: mean survival time, dose: 400.0 mg/kg/injection, schedule: Q04DX002 (ip), vehicle: saline with Tween-80): 94 % of control

SMILES: NCCCOS(=O)(=O)O
- T/C [12]: 96 % of control
- T/C (endpoint: mean survival time, dose: 100.0 mg/kg/injection, schedule: Q04DX003 (ip), vehicle: saline): 98 % of control
- T/C [13]: 97 % of control
- T/C (endpoint: mean survival time, dose: 200.0 mg/kg/injection, schedule: Q04DX003 (ip), vehicle: saline): 101 % of control
- T/C [14]: 100 % of control
- T/C (endpoint: mean survival time, dose: 400.0 mg/kg/injection, schedule: Q04DX003 (ip), vehicle: saline): 95 % of control

SMILES: CCOP(=O)(OCC)/C(C#N)=C\c1ccc(O)c(OC)c1
- T/C [3]: 98 % of control
- T/C [4]: 101 % of control
- T/C [5]: 96 % of control

SMILES: COc1ccc(NC(=O)Nc2ccc(C(C)C)cc2)cc1
- T/C [3]: 93 % of control
- T/C [4]: 91 % of control
- T/C [5]: 95 % of control

SMILES: O=C(Nc1ccc(CCO)cc1)Nc1ccc(F)c([N+](=O)[O-])c1
- T/C [6]: 98 % of control
- T/C [12]: 93 % of control
- T/C [3]: 101 % of control
- T/C [7]: 96 % of control
- T/C [13]: 94 % of control
- T/C [4]: 98 % of control
- T/C [8]: 92 % of control
- T/C [14]: 93 % of control
- T/C [5]: 102 % of control

SMILES: CC(C#N)(C#N)N=Nc1ccc(Cl)cc1Cl
- T/C [9]: 96 % of control and 102 % of control
- T/C [10]: 100 % of control and 104 % of control
- T/C [11]: 98 % of control and 107 % of control
- T/C [12]: 101 % of control and 107 % of control
- T/C [13]: 101 % of control and 111 % of control
- T/C [14]: 113 % of control and 102 % of control

SMILES: Cc1c(Cl)cccc1NS(=O)(=O)c1cccc([N+](=O)[O-])c1
- T/C [3]: 88 % of control
- T/C [4]: 92 % of control
- T/C [5]: 86 % of control
